Where two headings read alike, the source gives them in different places.
Experiments:
[1] = Compound cytotoxicity, XTT-based colorimetric assay; type: cell-based; conditions: human
Procedure: Compound cytotoxicity and the corresponding CC50 values were determined using the same protocol as described in the antiviral assay except that uninfected cells were used. Cytotoxicity was assessed on day 4 in uninfected MT2 cells by using a XTT (2,3-bis [2-Methoxy-4-nitro-5-sulfophenyl]-2H-tetrazolium-5-carboxyanilide inner salt)-based colorimetric assay (Sigma-Aldrich, St Louis, Mo.).

[2] = system: recombinant NL4-3 virus (Renilla luciferase reporter) in MT-2 cells; test: HIV cell culture assay (antiviral activity, luciferase readout in infected MT-2 cells); type: cell-based; conditions: NL43
[3] = uninfected MT2 cells, day 4, XTT, read-out: CC50

C[C@@H]1CN(c2ccc3c(=O)n(-c4ccc(Cl)c5c(NS(C)(=O)=O)nn(CC(F)(F)F)c45)c([C@H](Cc4cc(F)cc(F)c4)NC(=O)Cn4nc(C(F)F)c5c4C(F)(F)[C@@H]4C[C@H]54)nc3n2)C[C@H](C)O1 (atropisomer, axis not shown; (aR)) [Example 7, N—((S)-1-(3-(4-chloro-3-(methylsulfonamido)-1-(2,2,2-trifluoroethyl)-1H-indazol-7-yl)-7-((2S,6R)-2,6-dimethylmorpholino)-4-oxo-3,4-dihydropyrido[2,3-d]pyrimidin-2-yl)-2-(3,5-difluorophenyl)ethyl)-2-((3bS,4aR)-3-(difluoromethyl)-5,5-difluoro-3b,4,4a,5-tetrahydro-1H-cyclopropa[3,4]cyclopenta[1,2-c]pyrazol-1-yl)acetamide]
CC50 at 4 days [1, 3]: > 500 nM | EC50 [2]: 0.028 nM

C[C@@H]1CN(c2ccc3c(=O)n(-c4ccc(Cl)c5c(NS(C)(=O)=O)nn(CC(F)(F)F)c45)c([C@H](Cc4cc(F)cc(F)c4)NC(=O)Cn4nc(C(F)(F)F)c5c4C(F)(F)[C@@H]4C[C@H]54)nc3n2)C[C@H](C)O1 (atropisomer, axis not shown; (aR)) [Example 8, N—((S)-1-(3-(4-chloro-3-(methylsulfonamido)-1-(2,2,2-trifluoroethyl)-1H-indazol-7-yl)-7-((2S,6R)-2,6-dimethylmorpholino)-4-oxo-3,4-dihydropyrido[2,3-d]pyrimidin-2-yl)-2-(3,5-difluorophenyl)ethyl)-2-((3bS,4aR)-5,5-difluoro-3-(trifluoromethyl)-3b,4,4a,5-tetrahydro-1H-cyclopropa[3,4]cyclopenta[1,2-c]pyrazol-1-yl)acetamide]
CC50 at 4 days [1, 3]: > 500 nM | EC50 [2]: 0.032 nM

CC(F)CCNc1ccc2c(=O)n(-c3ccc(Cl)c4c(NS(C)(=O)=O)nn(C)c34)c([C@H](Cc3cc(F)cc(F)c3)NC(=O)Cn3nc(C(F)F)c4c3C(F)(F)[C@@H]3C[C@H]43)nc2n1 (stereo partly drawn) [Example 9, N-((1S)-1-((3P)-3-(4-chloro-1-methyl-3-(methylsulfonamido)-1H-indazol-7-yl)-7-((3-fluorobutyl)amino)-4-oxo-3,4-dihydropyrido[2,3-d]pyrimidin-2-yl)-2-(3,5-difluorophenyl)ethyl)-2-((3bS,4aR)-3-(difluoromethyl)-5,5-difluoro-3b,4,4a,5-tetrahydro-1H-cyclopropa[3,4]cyclopenta[1,2-c]pyrazol-1-yl)acetamide]
CC50 at 4 days [1, 3]: > 100 nM | EC50 [2]: 0.046 nM

CCN(CCC(F)(F)F)c1ccc2c(=O)n(-c3ccc(Cl)c4c(NS(C)(=O)=O)nn(C)c34)c([C@H](Cc3cc(F)cc(F)c3)NC(=O)Cn3nc(C(F)F)c4c3C(F)(F)[C@@H]3C[C@H]43)nc2n1 [Example 10, N—((S)-1-((3P)-3-(4-chloro-1-methyl-3-(methylsulfonamido)-1H-indazol-7-yl)-7-(ethyl(3,3,3-trifluoropropyl)amino)-4-oxo-3,4-dihydropyrido[2,3-d]pyrimidin-2-yl)-2-(3,5-difluorophenyl)ethyl)-2-((3bS,4aR)-3-(difluoromethyl)-5,5-difluoro-3b,4,4a,5-tetrahydro-1H-cyclopropa[3,4]cyclopenta[1,2-c]pyrazol-1-yl)acetamide]
CC50 at 4 days [1, 3]: > 100 nM | EC50 [2]: 0.037 nM

Cn1nc(NS(C)(=O)=O)c2c(Cl)ccc(-n3c([C@H](Cc4cc(F)cc(F)c4)NC(=O)Cn4nc(C(F)F)c5c4C(F)(F)[C@@H]4C[C@H]54)nc4nc(N5C6CCC5COC6)ccc4c3=O)c21 [Example 20, N-((1S)-1-(7-(3-oxa-8-azabicyclo[3.2.1]octan-8-yl)-(3P)-3-(4-chloro-1-methyl-3-(methylsulfonamido)-1H-indazol-7-yl)-4-oxo-3,4-dihydropyrido[2,3-d]pyrimidin-2-yl)-2-(3,5-difluorophenyl)ethyl)-2-((3bS,4aR)-3-(difluoromethyl)-5,5-difluoro-3b,4,4a,5-tetrahydro-1H-cyclopropa[3,4]cyclopenta[1,2-c]pyrazol-1-yl)acetamide]
CC50 at 4 days [1]: > 100 nM | EC50 [2]: 0.05 nM

Cn1nc(NS(C)(=O)=O)c2c(Cl)ccc(-n3c([C@H](Cc4cc(F)cc(F)c4)NC(=O)Cn4nc(C(F)F)c5c4C(F)(F)[C@@H]4C[C@H]54)nc4nc(N5CC6CCC(C5)O6)ccc4c3=O)c21 [Example 21, N-((1S)-1-(7-(8-oxa-3-azabicyclo[3.2.1]octan-3-yl)-(3P)-3-(4-chloro-1-methyl-3-(methylsulfonamido)-1H-indazol-7-yl)-4-oxo-3,4-dihydropyrido[2,3-d]pyrimidin-2-yl)-2-(3,5-difluorophenyl)ethyl)-2-((3bS,4aR)-3-(difluoromethyl)-5,5-difluoro-3b,4,4a,5-tetrahydro-1H-cyclopropa[3,4]cyclopenta[1,2-c]pyrazol-1-yl)acetamide]
CC50 at 4 days [1, 3]: > 100 nM | EC50 [2]: 0.058 nM

Reference: patent publication US20210395248A1, “INHIBITORS OF HUMAN IMMUNODEFICIENCY VIRUS REPLICATION” (ViiV HEALTHCARE UK (NO.5) LIMITED, priority 2018, published 2021)
